Measured values as given in PMC5768343, “A natural inhibitor of kidney-type glutaminase: a withanolide from Physalis pubescens with potent anti-tumor activity” (Oncotarget, 2017).

Legend:
intracellular KGA = target: T1, intracellular KGA (Homo sapiens, UniProt O94925); assay: Cellular thermal shift assay (CETSA) in intact SW1990 cells; format: cell-based; conditions: 10 μM, 4 hours, 48°C without compound
T1 construct: endogenous in cells; host or cells: SW1990
T1 sequence (O94925 55-669): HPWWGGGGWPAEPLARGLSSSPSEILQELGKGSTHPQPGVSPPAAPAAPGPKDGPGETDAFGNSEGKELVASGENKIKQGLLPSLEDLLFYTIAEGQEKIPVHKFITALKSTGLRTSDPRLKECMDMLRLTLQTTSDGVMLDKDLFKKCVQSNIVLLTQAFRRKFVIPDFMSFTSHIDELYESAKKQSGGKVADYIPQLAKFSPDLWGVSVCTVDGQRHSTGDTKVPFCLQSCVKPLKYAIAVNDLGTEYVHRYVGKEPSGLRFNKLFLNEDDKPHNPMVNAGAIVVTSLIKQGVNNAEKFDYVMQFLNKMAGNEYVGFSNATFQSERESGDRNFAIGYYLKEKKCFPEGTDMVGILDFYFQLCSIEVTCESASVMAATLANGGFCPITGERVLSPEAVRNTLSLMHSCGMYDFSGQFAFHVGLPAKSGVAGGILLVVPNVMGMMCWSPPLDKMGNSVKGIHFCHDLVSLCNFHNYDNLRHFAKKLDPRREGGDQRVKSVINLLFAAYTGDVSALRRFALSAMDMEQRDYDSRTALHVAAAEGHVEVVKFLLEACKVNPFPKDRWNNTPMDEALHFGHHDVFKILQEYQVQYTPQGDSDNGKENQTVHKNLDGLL
Description: To further investigate the interaction of the compound with KGA, microscale thermophoresis method (MST) was used to assay the binding affinity between physapubescin K and KGA. This technology can quantify protein-protein or protein-small molecule interactions with high sensitivity through detecting fluorescent changes of molecules during thermophoresis. […] However, it was of vital importance to verify whether it could bind with the intracellular KGA. The cellular thermal shift assay (CETSA), which based on the biophysical principle of ligand-induced thermal stabilization of target protein [25], was thus conducted to investigate its affinity with intracellular KGA. […] As shown in Figure 4B and 4C, physapubescin K increased the thermal stability of KGA in intact cells from tolerate temperature of 48°C to temperature of 50°C.
The ability of compounds to interact with, and thereby stabilize the target in intact cells, was analyzed essentially as described by Alshareef A et al.. Briefly, cells cultured in 10-cm tissue culture dishes at about 90% confluence were treated with media containing DMSO or 10 μM physapubescin K for 4 hours. After treatment, cells were detached with cell scraper, collected by centrifugation and subsequently resuspended in PBS. The cell suspension was aliquoted into seven PCR tubes and heated for 3 minutes to 40, 42, 44, 46, 48, 50 or 52°C. […]

[1] = tested on: glutamine metabolism in T47D cells; assay: Intracellular metabolite levels, T47D; format: cell-based, human; conditions: 2.5 or 5 μM, 4 hours
Experimental: Blocking glutamine metabolism can inhibit the growth and proliferation of glutamine-dependent cells, mainly because of blocking the production and utilization of glutamine metabolites. The effects of different concentrations of physapubescin K on the intracellular glutamine and its downstream metabolites were examined. […] And the same effect could also be seen in Hcc827-ER cells (Figure 7C).
NADPH/NADP^+ ratio was determined by using NADP^+/NADPH Quantification Colorimetric Kit (BioVision, #K347-100). The abundance of intracellular glutamine (KeyGen, Nanjing, China A124), glutamate (KeyGen, Nanjing, China A074), (BioVision, #K778), aspartate (BioVision, #K552), oxaloacetate (BioVision, #K659) and malate (BioVision, #K637) was determined by using quantification kits, according the manufacturer’s instruction. Briefly, 5 × 10^6 cells (10-cm dishes) were collected during log-phase growth by cell scraper, homogenized in 0.2 mL of provided buffers (on ice), and centrifuged at 4°C for 10 min at 13,000 g. Supernatants were deproteinized using 10 K Ultrafiltration tube (Millipore, USA), analyzed and compared to standard curves. The signals obtained were normalized to the protein concentration calculated upon processing a parallel 10-cm dish.

SW1990 xenograft = SW1990 xenograft mouse model; format: in vivo; conditions: 5 mg/kg intraperitoneal injection daily, P < 0.01, dose-dependent
Experimental: All animal experiments were performed in accordance with the Guide for the Care and Use of Laboratory Animals of Tongji Medical College, Huazhong University of Science and Technology and approved by the Ethics Committee. CB-17/ SCID mice (male, 4 weeks old) were purchased from Beijing HFK Bioscience CO., LTD (Beijing, China). SW1990 cells were inoculated subcutaneously (3 × 10^6 cells) into the left flank of each mouse. Six days later, mice were randomly divided into […] and were injected i.p. daily for 16 days with one of the following treatments: (1) natural saline group (n = 10); (2) 5 mg/Kg physapubescin K (n = 10); (3) 10 mg/Kg physapubescin K (n = 10). The dose volume was 0.1 mL/10 g body weight, and the weights of mice were recorded every day. Meanwhile, the tumor volumes were measured with vernier calipers and calculated by the following formula: (A × B2)/2, where A was length and B was width of the two-dimension tumor. After animals were sacrificed, tumor weights were measured. The inhibition ratio (%) was calculated using the following equation: I% = 100% × [Wtumor (vehicle) − Wtumor (treated)]/Wtumor (vehicle)

SW1990 cells = assay: ROS quantification (DCFDA assay); format: cell-based, human; conditions: 2.5 or 5 μM, 24 h
Experimental: DCFDA assay was performed 24 h after interfered with difference concentration of physapubescin K or DMSO. Cells were incubated with 5 μM 2′,7′-dichlorodihydrofluorescein diacetate (DCFDA, KeyGen, Nanjing, China A124) for 30 min. Cells were washed twice with PBS to remove excess DCFDA, and the labeled cells were then collected in PBS. The fluorescent of 2′,7′-dichloro-fluorescein (DCF) was proportionate to ROS generation and was measured by microplate reader.

Compound: CO[C@H]1O[C@@H]([C@@H](C)[C@H]2C[C@H](OC(C)=O)[C@H]3[C@@H]4C[C@H]5O[C@]56[C@@H](O)C=CC(=O)[C@]6(C)[C@H]4CC[C@@]32C)C[C@]2(C)O[C@]12C [physapubescin K]
- thermal stability of KGA, tolerate temperature (intracellular KGA): 50 °C
- effects on glutamine metabolism [1]: moderate effects
- growth of the tumor (SW1990 xenograft): significantly inhibit the growth of the tumor
- intracellular reactive oxygen species (ROS) levels (SW1990 cells): significantly increase
